Earlier results, collected in US8632986B2, “Methods and kits for detection of toxemia” (priority 2008, dated 2014).

Molecular target: albumin (Homo sapiens, UniProt P02768)
Details: general statement

Chain of albumin (P02768 25-609, species assumed): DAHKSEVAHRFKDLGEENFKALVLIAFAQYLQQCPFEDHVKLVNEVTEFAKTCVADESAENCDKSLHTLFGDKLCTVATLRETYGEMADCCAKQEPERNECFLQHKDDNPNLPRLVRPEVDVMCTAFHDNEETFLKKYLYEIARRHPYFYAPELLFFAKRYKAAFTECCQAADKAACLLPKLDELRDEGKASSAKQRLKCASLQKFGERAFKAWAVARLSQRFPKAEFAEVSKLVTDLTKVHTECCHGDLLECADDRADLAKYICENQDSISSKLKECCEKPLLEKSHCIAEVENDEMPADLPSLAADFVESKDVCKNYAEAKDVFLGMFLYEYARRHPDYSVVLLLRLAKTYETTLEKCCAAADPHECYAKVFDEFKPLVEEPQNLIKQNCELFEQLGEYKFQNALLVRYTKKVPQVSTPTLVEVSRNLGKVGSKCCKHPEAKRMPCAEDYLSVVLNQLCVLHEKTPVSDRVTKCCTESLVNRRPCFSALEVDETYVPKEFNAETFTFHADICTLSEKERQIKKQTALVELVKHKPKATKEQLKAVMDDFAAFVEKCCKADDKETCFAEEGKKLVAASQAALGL

For `CCCCCCCCCCCCCCCCCC(=O)O` [unlabeled stearic acid, stearic acid], the binding constant is given as “about 10^9 mol^−1”.
